# Patent US20090068290A1, “BIFEPRUNOX DOSES FOR TREATING SCHIZOPHRENIA” (priority 2006, published 2009)
# How the values were obtained:
# [1] = test system: patients with chronic schizophrenia; assay: PANSS total score, Clinical Study Four; type: in vivo, human; settings: FAS; for Change from Baseline in PANSS Total Score, Difference to PBO Mean / Adjusted Mean Change from Baseline in PANSS Total Score, Least Squares Estimates Mean / PANSS total, Adjusted Mean Change from Baseline (LS mean): ANCOVA; for PANSS total, Adjusted Mean Change from Baseline (LS mean): BX20 = 20 mg, BX30 = 30 mg
# Procedure: (§1) METHODOLOGY: This study was a multinational, multicenter, randomized, double-blind, parallel-group, placebo-controlled, fixed-dose study. The study consisted of a 3- to 6-day antipsychotic-free run-in period, after which patients were randomised to 6 months of double-blind treatment with fixed doses of bifeprunox (20 mg/day (BX20) or 30 mg/day (BX30)) or placebo (PBO). Patients allocated to the BX groups were up-titrated from 0.25 mg/day over 7 days (BX20) or 8 days (BX30), and then continued on these doses for the remainder of the study. […] At predetermined time points, blood samples were obtained for drug concentration analysis of BX and its major metabolites (3′- and 4′-sulfate conjugates of BX), and pharmaco-economic assessments were performed.
# [2] = test system: patients with chronic schizophrenia; assay: PANSS negative subscale score, Clinical Study Four; type: in vivo, human; settings: FAS, ANCOVA; for PANSS negative subscale, Adjusted Mean Change from Baseline (LS mean): LOCF; for mean PANSS negative subscale scores versus PBO, per-visit LOCF analysis: both BX doses
# Procedure: as §1
# [3] = test system: patients with chronic schizophrenia; assay: CGI-I score and CGI-I responders (score 2 or less), Clinical Study Four; type: in vivo, human; settings: FAS; for proportion of patients with a CGI-I score ≦2 / CGI-I, Adjusted mean values (LS mean): LOCF; for CGI-I, Adjusted mean values (LS mean): adjusted mean values instead of change from baseline
# Procedure: as §1
# CLINICAL STUDY FOUR: The proportion of patients with a CGI-I score ≦2 at each visit (CGI-I responders; FAS, LOCF) is show below in FIG. 5.
# [4] = test system: serum proteins; assay: Binding to serum proteins
structure (smiles),measurement,setting,value
"O=c1[nH]c2cccc(N3CCN(Cc4cccc(-c5ccccc5)c4)CC3)c2o1 [Bifeprunox, 7-[4-([1,1′-biphenyl]-3-ylmethyl)-1-piperazinyl]-2(3H)-benzoxazolone]","Change from Baseline in PANSS Total Score, Difference to PBO Mean","[1]; Day 63, POCF, listed as BX30",−3.77
same,"Adjusted Mean Change from Baseline in PANSS Total Score, Least Squares Estimates Mean","[1]; Day 90, LOCF, listed as BX20",−2.18
same,"Change from Baseline in PANSS Total Score, Difference to PBO Mean","[1]; Day 90, LOCF, listed as BX20",−5.85
same,"Adjusted Mean Change from Baseline in PANSS Total Score, Least Squares Estimates Mean","[1]; Day 90, LOCF, listed as BX30",−1.47
same,"Change from Baseline in PANSS Total Score, Difference to PBO Mean","[1]; Day 90, LOCF, listed as BX30",−5.14
same,"Adjusted Mean Change from Baseline in PANSS Total Score, Least Squares Estimates Mean","[1]; Day 90, OC, listed as BX20",−14.17
same,"Change from Baseline in PANSS Total Score, Difference to PBO Mean","[1]; Day 90, OC, listed as BX20",−4.92
same,"Adjusted Mean Change from Baseline in PANSS Total Score, Least Squares Estimates Mean","[1]; Day 90, OC, listed as BX30",−12.71
same,"Change from Baseline in PANSS Total Score, Difference to PBO Mean","[1]; Day 90, OC, listed as BX30",−3.46
same,"Adjusted Mean Change from Baseline in PANSS Total Score, Least Squares Estimates Mean","[1]; Day 90, POCF, listed as BX20",−10.43
same,"Change from Baseline in PANSS Total Score, Difference to PBO Mean","[1]; Day 90, POCF, listed as BX20",−5.19
same,"Adjusted Mean Change from Baseline in PANSS Total Score, Least Squares Estimates Mean","[1]; Day 90, POCF, listed as BX30",−9.25
same,"Change from Baseline in PANSS Total Score, Difference to PBO Mean","[1]; Day 90, POCF, listed as BX30",−4.00
same,"Adjusted Mean Change from Baseline in PANSS Total Score, Least Squares Estimates Mean","[1]; Day 120, LOCF, listed as BX20",−1.20
same,"Change from Baseline in PANSS Total Score, Difference to PBO Mean","[1]; Day 120, LOCF, listed as BX20",−6.50
same,"Adjusted Mean Change from Baseline in PANSS Total Score, Least Squares Estimates Mean","[1]; Day 120, LOCF, listed as BX30",−0.84
same,"Change from Baseline in PANSS Total Score, Difference to PBO Mean","[1]; Day 120, LOCF, listed as BX30",−6.14
same,"Adjusted Mean Change from Baseline in PANSS Total Score, Least Squares Estimates Mean","[1]; Day 120, OC, listed as BX20",−15.81
same,"Change from Baseline in PANSS Total Score, Difference to PBO Mean","[1]; Day 120, OC, listed as BX20",−5.45
same,"Adjusted Mean Change from Baseline in PANSS Total Score, Least Squares Estimates Mean","[1]; Day 120, OC, listed as BX30",−14.56
same,"Change from Baseline in PANSS Total Score, Difference to PBO Mean","[1]; Day 120, OC, listed as BX30",−4.19
same,"Adjusted Mean Change from Baseline in PANSS Total Score, Least Squares Estimates Mean","[1]; Day 120, POCF, listed as BX20",−10.30
same,"Change from Baseline in PANSS Total Score, Difference to PBO Mean","[1]; Day 120, POCF, listed as BX20",−5.21
same,"Adjusted Mean Change from Baseline in PANSS Total Score, Least Squares Estimates Mean","[1]; Day 120, POCF, listed as BX30",−9.68
same,"Change from Baseline in PANSS Total Score, Difference to PBO Mean","[1]; Day 120, POCF, listed as BX30",−4.59
same,"Adjusted Mean Change from Baseline in PANSS Total Score, Least Squares Estimates Mean","[1]; Day 150, LOCF, listed as BX20",−0.56
same,"Change from Baseline in PANSS Total Score, Difference to PBO Mean","[1]; Day 150, LOCF, listed as BX20",−7.04
same,"Adjusted Mean Change from Baseline in PANSS Total Score, Least Squares Estimates Mean","[1]; Day 150, LOCF, listed as BX30",−0.31
same,"Change from Baseline in PANSS Total Score, Difference to PBO Mean","[1]; Day 150, LOCF, listed as BX30",−6.80
same,"Adjusted Mean Change from Baseline in PANSS Total Score, Least Squares Estimates Mean","[1]; Day 150, OC, listed as BX20",−16.36
same,"Change from Baseline in PANSS Total Score, Difference to PBO Mean","[1]; Day 150, OC, listed as BX20",−1.97
same,"Adjusted Mean Change from Baseline in PANSS Total Score, Least Squares Estimates Mean","[1]; Day 150, OC, listed as BX30",−15.93
same,"Change from Baseline in PANSS Total Score, Difference to PBO Mean","[1]; Day 150, OC, listed as BX30",−1.54
same,"Adjusted Mean Change from Baseline in PANSS Total Score, Least Squares Estimates Mean","[1]; Day 150, POCF, listed as BX20",−10.40
same,"Change from Baseline in PANSS Total Score, Difference to PBO Mean","[1]; Day 150, POCF, listed as BX20",−5.20
same,"Adjusted Mean Change from Baseline in PANSS Total Score, Least Squares Estimates Mean","[1]; Day 150, POCF, listed as BX30",−9.55
same,"Change from Baseline in PANSS Total Score, Difference to PBO Mean","[1]; Day 150, POCF, listed as BX30",−4.35
same,"Adjusted Mean Change from Baseline in PANSS Total Score, Least Squares Estimates Mean","[1]; Day 180, LOCF, listed as BX20",−0.81
same,"Change from Baseline in PANSS Total Score, Difference to PBO Mean","[1]; Day 180, LOCF, listed as BX20",−7.91
same,"Adjusted Mean Change from Baseline in PANSS Total Score, Least Squares Estimates Mean","[1]; Day 180, LOCF, listed as BX30",−0.44
same,"Change from Baseline in PANSS Total Score, Difference to PBO Mean","[1]; Day 180, LOCF, listed as BX30",−7.54
same,"Adjusted Mean Change from Baseline in PANSS Total Score, Least Squares Estimates Mean","[1]; Day 180, OC, listed as BX20",−18.09
same,"Change from Baseline in PANSS Total Score, Difference to PBO Mean","[1]; Day 180, OC, listed as BX20",−3.60
same,"Adjusted Mean Change from Baseline in PANSS Total Score, Least Squares Estimates Mean","[1]; Day 180, OC, listed as BX30",−18.58
same,"Change from Baseline in PANSS Total Score, Difference to PBO Mean","[1]; Day 180, OC, listed as BX30",−4.09
same,"Adjusted Mean Change from Baseline in PANSS Total Score, Least Squares Estimates Mean","[1]; Day 180, POCF, listed as BX20",−10.84
same,"Change from Baseline in PANSS Total Score, Difference to PBO Mean","[1]; Day 180, POCF, listed as BX20",−5.43
same,"Adjusted Mean Change from Baseline in PANSS Total Score, Least Squares Estimates Mean","[1]; Day 180, POCF, listed as BX30",−9.92
same,"Change from Baseline in PANSS Total Score, Difference to PBO Mean","[1]; Day 180, POCF, listed as BX30",−4.52
same,"PANSS total, Adjusted Mean Change from Baseline (LS mean)","[1]; Month 6, LOCF, listed as BX20",−4.0
same,"PANSS total, Adjusted Mean Change from Baseline (LS mean)","[1]; Month 6, LOCF, listed as BX30",−0.4
same,"PANSS total, Adjusted Mean Change from Baseline (LS mean)","[1]; Week 6, LOCF, listed as BX20",−4.0
same,"PANSS total, Adjusted Mean Change from Baseline (LS mean)","[1]; Week 6, LOCF, listed as BX30",−2.6
same,"PANSS total scores versus PBO, LOCF analysis",[1]; both BX groups,statistically significantly superior to that in the PBO group from Week 6 onwards
same,"PANSS negative subscale, Adjusted Mean Change from Baseline (LS mean)","[2]; Month 6, listed as BX20",−1.6
same,"PANSS negative subscale, Adjusted Mean Change from Baseline (LS mean)","[2]; Month 6, listed as BX30",−1.7
same,"PANSS negative subscale, Adjusted Mean Change from Baseline (LS mean)","[2]; Week 6, listed as BX20",−2.0
same,"PANSS negative subscale, Adjusted Mean Change from Baseline (LS mean)","[2]; Week 6, listed as BX30",−1.6
same,"mean PANSS negative subscale scores versus PBO, per-visit LOCF analysis",[2]; listed as BX,"statistically significantly superior to that with PBO at all time points, except at Weeks 2 and 4 for the BX30 group"
same,"mean PANSS negative subscale scores versus PBO, per-visit LOCF analysis",[2]; listed as BX20,"statistically significantly superior to that with PBO at all time points, except at Weeks 2 and 4 for BX30"
same,proportion of patients with a CGI-I score ≦2,"[3]; BX20, Month 6",22%
same,proportion of patients with a CGI-I score ≦2,"[3]; BX20, Week 6",17%
same,proportion of patients with a CGI-I score ≦2,"[3]; BX30, Month 6",20%
same,proportion of patients with a CGI-I score ≦2,"[3]; BX30, Week 6",19%
same,"CGI-I, Adjusted mean values (LS mean)","[3]; Month 6, ANCOVA",4.0
same,"CGI-I, Adjusted mean values (LS mean)","[3]; Week 6, ANCOVA, listed as BX20",3.8
same,"CGI-I, Adjusted mean values (LS mean)","[3]; Week 6, ANCOVA, listed as BX30",3.7
same,"mean CGI-I scores versus PBO, per-visit LOCF analysis","[3]; both BX doses, ANCOVA",statistically significantly superior to PBO from Week 6 onwards
same,bound to serum proteins,[4],approximately 99%
